Measurements: patent publication US20260176289A1, “SMALL MOLECULE INHIBITORS OF KRAS PROTEINS” (Merck Sharp & Dohme LLC, priority 2022, published 2026)

Columns and labels:
KRAS-WT = KRAS-WT (Homo sapiens, UniProt P01116); assay: SOS-catalyzed nucleotide exchange assay (Procedure A, TR-FRET), KRAS-WT; assay type: biochemical; conditions: nucleotide exchange, read-out: KRAS WT GNE IC50
Method in brief: (§1)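 Biotinylated RAS (KRAS-G12C carries C51S/C80L/C118S; others WT background) preloaded with Bodipy-GDP plus Tb-streptavidin, preincubated with compound 60 min at RT, then human SOS and 3 mM GTP added. Final RAS/SOS: G12C 3 nM/40 nM, 60 min; WT 1 nM/40 nM, 60 min; G12V 1.25 nM/160 nM, 90 min; NRAS 1.25 nM/40 nM, 60 min. TR-FRET 520/495 ratio normalized to DMSO and saturating inhibitor; 10-point curves fit four-parameter logistic.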

[1] = molecular target: KRAS-G12C (C51S/C80L/C118S) (Homo sapiens, UniProt P01116, C118S/C51S/C80L/G12C); assay: SOS-catalyzed nucleotide exchange assay (Procedure A, TR-FRET), KRAS-G12C; assay type: biochemical; conditions: nucleotide exchange, Procedure A; read-out: KRAS G12C GNE IC50
Chain of KRAS-G12C (C51S/C80L/C118S) (P01116 with tags, fused parts or gaps isoform P01116-2 G12C/C51S/C80L/C118S): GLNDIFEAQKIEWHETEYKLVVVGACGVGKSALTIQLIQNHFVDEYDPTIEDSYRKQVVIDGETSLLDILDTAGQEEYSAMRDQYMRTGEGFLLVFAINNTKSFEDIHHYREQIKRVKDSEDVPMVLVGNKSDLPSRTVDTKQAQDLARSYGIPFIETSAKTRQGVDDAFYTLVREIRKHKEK
Method in brief: as §1

KRAS-G12D = KRAS-G12D (Homo sapiens, UniProt P01116, G12D); assay: SOS-catalyzed nucleotide exchange assay (Procedure A, TR-FRET), KRAS-G12D; assay type: biochemical; conditions: nucleotide exchange, read-out: KRAS G12D GNE IC50
Chain of KRAS-G12D (P01116 with tags, fused parts or gaps isoform P01116-2 G12D): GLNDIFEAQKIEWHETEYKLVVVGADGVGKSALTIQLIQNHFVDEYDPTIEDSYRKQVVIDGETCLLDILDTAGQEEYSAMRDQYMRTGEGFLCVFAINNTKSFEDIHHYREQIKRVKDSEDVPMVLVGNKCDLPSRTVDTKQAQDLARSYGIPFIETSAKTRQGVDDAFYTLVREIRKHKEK
Method in brief: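 Signal ratio (520/495 nm, excitation 340 nm) reports Bodipy-GDP retention on biotinylated RAS after SOS-catalyzed exchange with 3 mM GTP. SOS was 40 nM, except 160 nM for G12V. Room-temperature exchange lasted 60 min (90 min for G12V), following a 60 min compound preincubation.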

KRAS-G12V = KRAS-G12V (Homo sapiens, UniProt P01116, G12V); assay: SOS-catalyzed nucleotide exchange assay (Procedure A, TR-FRET), KRAS-G12V; assay type: biochemical; conditions: nucleotide exchange, read-out: KRAS G12V GNE IC50
Chain of KRAS-G12V (P01116 with tags, fused parts or gaps isoform P01116-2 G12V): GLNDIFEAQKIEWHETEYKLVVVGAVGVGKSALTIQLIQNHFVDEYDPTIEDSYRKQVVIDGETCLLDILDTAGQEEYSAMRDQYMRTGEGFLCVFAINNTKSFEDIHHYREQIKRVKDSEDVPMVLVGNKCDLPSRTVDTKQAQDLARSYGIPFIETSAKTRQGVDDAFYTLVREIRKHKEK
Method in brief: as §1

KRAS-G13D = KRAS-G13D (Homo sapiens, UniProt P01116, G13D); assay: SOS-catalyzed nucleotide exchange assay (Procedure A, TR-FRET), KRAS-G13D; assay type: biochemical; conditions: nucleotide exchange, Procedure A; read-out: KRAS G13D GNE IC50
Chain of KRAS-G13D (P01116 with tags, fused parts or gaps isoform P01116-2 G13D): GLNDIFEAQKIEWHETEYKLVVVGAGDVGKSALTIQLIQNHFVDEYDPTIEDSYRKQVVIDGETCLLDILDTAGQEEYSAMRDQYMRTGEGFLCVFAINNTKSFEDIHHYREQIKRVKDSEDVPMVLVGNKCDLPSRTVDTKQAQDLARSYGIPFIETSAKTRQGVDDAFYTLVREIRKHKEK

MKN-1 cells = assay: Cellular phospho-ERK assay, MKN-1 cells (amplified wild-type KRAS); assay type: cell-based; conditions: Homo sapiens, amplified wild-type KRAS, 2 hours, read-out: MKN1 pERK IC50
Method in brief: (§2)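 Inhibition of ERK phosphorylation was determined after treating attached cells with compound for 2 h; top concentration 30 μM, serial 1:3 dilution. Each well's p-ERK:total ERK ratio, read by SureFire Ultra, was fitted with a four-parameter model for IC50.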

PANC08.13 cells = assay: Cellular phospho-ERK assay, PANC08.13 cells (homozygous KRAS-G12D); assay type: cell-based; conditions: Homo sapiens, PANC-08-13, KRAS-G12D, 2 hours, read-out: PANC-08.13 pERK IC50
Method in brief: as §2

AsPC-1 cells = assay: Cellular phospho-ERK assay, AsPC-1 cells (homozygous KRAS-G12D); assay type: cell-based; conditions: Homo sapiens, ASPC1, 2 h, KRAS-G12D, 2 hours, read-out: AsPC1 pERK IC50
Method in brief: as §2

SW620 cells = assay: Cellular phospho-ERK assay, SW620 cells (homozygous KRAS-G12V); assay type: cell-based; conditions: Homo sapiens, SW-620, KRAS-G12V, 2 hours, read-out: SW620 pERK IC50
Method in brief: as §2

Chain of KRAS-WT (P01116 with tags, fused parts or gaps isoform P01116-2): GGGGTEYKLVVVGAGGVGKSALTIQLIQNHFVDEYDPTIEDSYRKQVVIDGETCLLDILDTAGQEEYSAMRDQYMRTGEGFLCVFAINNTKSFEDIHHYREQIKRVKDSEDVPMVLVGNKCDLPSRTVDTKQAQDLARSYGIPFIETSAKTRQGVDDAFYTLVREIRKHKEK

Row | SMILES | IC50 (KRAS-WT) | IC50 [1] | IC50 (KRAS-G12D) | IC50 (KRAS-G12V) | IC50 (KRAS-G13D) | IC50 (MKN-1 cells) | IC50 (PANC08.13 cells) | IC50 (AsPC-1 cells) | IC50 (SW620 cells)
1 | Cc1cc2[nH]ncc2c(-c2nccc3c4c(N5CCOC[C@@](C)(O)C5)nc(OC[C@@]56CCCN5C[C@H](F)C6)nc4n(C)c23)c1C(F)(F)F (single isomer, unassigned) [Ex-1] | 93.4 nM | 19.8 nM | 41.5 nM | 55.6 nM | 77.4 nM | 222 nM | 237 nM | 376 nM | 429 nM
2 | C#Cc1c(C)cc2[nH]ncc2c1-c1nccc2c3c(N4CCOC[C@@](C)(O)C4)nc(OC[C@@]45CCCN4C[C@H](F)C5)nc3n(C)c12 (single isomer, unassigned) [Ex-7] | 42.9 nM | 129 nM | 22.3 nM | 30.2 nM | 22.9 nM | 142 nM | 99.9 nM | 248 nM | 233 nM
3 | Cc1cc2[nH]ncc2c(-c2nccc3c4c(N5CCOC[C@@](C)(O)C5)nc(OC[C@@]56CCCN5C[C@H](F)C6)nc4n(C)c23)c1C(F)F (single isomer, unassigned) [Ex-10] | 97.7 nM | 30.1 nM | 40.3 nM | 54 nM | 93.8 nM | 200 nM | 191 nM | 439 nM | 337 nM
4 | Cc1cc2[nH]ncc2c(-c2nccc3c4c(N5CCOC[C@@](C)(O)C5)nc(OC[C@]5(CN(C)C)CC5(F)F)nc4n(C)c23)c1C(F)F (single isomer, unassigned) [Ex-19] | 85.5 nM | 37.4 nM | 26.5 nM | 67.2 nM | 68.3 nM | 118 nM | 68.2 nM | 58.5 nM | 214 nM
5 | Cc1cc2[nH]ncc2c(-c2nccc3c4c(N5CCC[C@@](C)(O)C5)nc(OC[C@]5(CN(C)C)CC5(F)F)nc4n(C)c23)c1C(F)(F)F [Ex-6, (3R)-1-(2-(((R)-1-((dimethylamino)methyl)-2,2-difluorocyclopropyl)methoxy)-9-methyl-8-(6-methyl-5-(trifluoromethyl)-1H-indazol-4-yl)-9H-pyrido[4′,3′:4,5]pyrrolo[2,3-d]pyrimidin-4-yl)-3-methylpiperidin-3-ol] | 218 nM | 104 nM | 98.1 nM | 128 nM | 49 nM | 304 nM | 188 nM | 460 nM | 291 nM
6 | Cn1c2nc(OC[C@@]34CCCN3C[C@H](F)C4)nc(N3CCOC[C@@](C)(O)C3)c2c2ccnc(-c3ccc(F)c4sc(N)c(C#N)c34)c21 [Ex-16, 2-amino-7-fluoro-4-(2-(((2R,7aS)-2-fluorotetrahydro-1H-pyrrolizin-7a(5H)-yl)methoxy)-4-((S)-6-hydroxy-6-methyl-1,4-oxazepan-4-yl)-9-methyl-9H-pyrido[4′,3′:4,5]pyrrolo[2,3-d]pyrimidin-8-yl)benzo[b]thiophene-3-carbonitrile] | 765 nM | 1320 nM | 952 nM | 561 nM | 315 nM | 1770 nM | 5450 nM | – | 8490 nM
7 | COc1cc2c3c(N4CCOC[C@@](C)(O)C4)nc(OC[C@@]45CCCN4C[C@H](F)C5)nc3n(C)c2c(-c2c(C(F)(F)F)c(C)cc3[nH]ncc23)n1 [Ex-26, (6S)-4-(2-(((2R,7aS)-2-fluorotetrahydro-1H-pyrrolizin-7a(5H)-yl)methoxy)-6-methoxy-9-methyl-8-(6-methyl-5-(trifluoromethyl)-1H-indazol-4-yl)-9H-pyrido[4′,3′:4,5]pyrrolo[2,3-d]pyrimidin-4-yl)-6-methyl-1,4-oxazepan-6-ol] | 189 nM | 209 nM | 96 nM | 96.3 nM | 94.3 nM | 325 nM | 170 nM | – | 709 nM
8 | Cc1cc2[nH]ncc2c(-c2nccc3c2sc2nc(OC[C@@]45CCCN4C[C@H](F)C5)nc(N4CCOC[C@@](C)(O)C4)c23)c1Cl [Ex-32, (6S)-4-(8-(5-chloro-6-methyl-1H-indazol-4-yl)-2-(((2R,7aS)-2-fluorotetrahydro-1H-pyrrolizin-7a(5H)-yl)methoxy)pyrido[4′,3′:4,5]thieno[2,3-d]pyrimidin-4-yl)-6-methyl-1,4-oxazepan-6-ol] | 202 nM | 91.7 nM | 101 nM | 212 nM | 111 nM | 274 nM | 174 nM | – | 222 nM
9 | C#Cc1c(C)cc2[nH]ncc2c1-c1nccc2c1sc1nc(OC[C@@]34CCCN3C[C@H](F)C4)nc(N3CCOC[C@@](C)(O)C3)c12 [Ex-33, (6S)-4-(8-(5-ethynyl-6-methyl-1H-indazol-4-yl)-2-(((2R,7aS)-2-fluorotetrahydro-1H-pyrrolizin-7a(5H)-yl)methoxy)pyrido[4′,3′:4,5]thieno[2,3-d]pyrimidin-4-yl)-6-methyl-1,4-oxazepan-6-ol] | 35.7 nM | 35.3 nM | 13.6 nM | 28.7 nM | 19.7 nM | 52.9 nM | 60.1 nM | – | 126 nM
10 | C=Cc1c(C)cc2[nH]ncc2c1-c1nccc2c1sc1nc(OC[C@@]34CCCN3C[C@H](F)C4)nc(N3CCOC[C@@](C)(O)C3)c12 [Ex-35, (6S)-4-(2-(((2R,7aS)-2-fluorotetrahydro-1H-pyrrolizin-7a(5H)-yl)methoxy)-8-(6-methyl-5-vinyl-1H-indazol-4-yl)pyrido[4′,3′:4,5]thieno[2,3-d]pyrimidin-4-yl)-6-methyl-1,4-oxazepan-6-ol] | 66.7 nM | 29.2 nM | 31.9 nM | 73.7 nM | 47.1 nM | 121 nM | 73.5 nM | 264 nM | 172 nM
11 | CCOc1c(C)cc2[nH]ncc2c1-c1nccc2c1sc1nc(OC[C@@]34CCCN3C[C@H](F)C4)nc(N3CCOC[C@@](C)(O)C3)c12 [Ex-38, (6S)-4-(8-(5-ethoxy-6-methyl-1H-indazol-4-yl)-2-(((2R,7aS)-2-fluorotetrahydro-1H-pyrrolizin-7a(5H)-yl)methoxy)pyrido[4′,3′:4,5]thieno[2,3-d]pyrimidin-4-yl)-6-methyl-1,4-oxazepan-6-ol] | 239 nM | 36 nM | 96.6 nM | 186 nM | 123 nM | 197 nM | 122 nM | 395 nM | 277 nM
12 | Cc1cc2[nH]ncc2c(-c2nccc3c2sc2nc(OC[C@@]45CCCN4C[C@H](F)C5)nc(N4CCOC[C@@](C)(O)C4)c23)c1OC(F)(F)Cl [Ex-39, (6S)-4-(8-(5-(chlorodifluoromethoxy)-6-methy1-1H-indazol-4-yl)-2-(((2R,7aS)-2-fluorotetrahydro-1H-pyrrolizin-7a(5H)-yl)methoxy)pyri-do[4′,3′:4,5]thi-eno[2,3-d]pyrimidin-4-yl)-6-methyl-1,4-oxazepan-6-ol] | 30 nM | 9.42 nM | 9.23 nM | 30.9 nM | 20.4 nM | 44.2 nM | 35.7 nM | 118 nM | 74.3 nM
13 | C#Cc1cccc2cccc(-c3nccc4c3sc3nc(OC[C@@]56CCCN5C[C@H](F)C6)nc(N5CCOC[C@@](C)(O)C5)c34)c12 [Ex-127, (S)-4-(8-(8-ethynyl-naphthalen-1-yl)-2-(((2R,7aS)-2-fluoro-tetrahydro-1H-pyr-rolizin-7a(5H)-yl)-methoxy)pyrido[4′, 3′:4,5]thieno[2,3-d]pyrimidin-4-yl)-6-methyl-1,4-oxaze-pan-6-ol] | 233 nM | 91.7 nM | 103 nM | 121 nM | 287 nM | 510 nM | 351 nM | – | 483 nM
